Measured values from article PMC9696254, “Discovery of p-Terphenyl Metabolites as Potential Phosphodiesterase PDE4D Inhibitors from the Coral-Associated Fungus Aspergillus sp. ITBBc1” (Marine Drugs, 2022).

Molecular target: PDE4D (Homo sapiens, UniProt Q08499)
Assay: in vitro PDE4D inhibition assay, liquid scintillation counting, three independent experiments
Type: biochemical

Chain of PDE4D (Q08499 whole entry): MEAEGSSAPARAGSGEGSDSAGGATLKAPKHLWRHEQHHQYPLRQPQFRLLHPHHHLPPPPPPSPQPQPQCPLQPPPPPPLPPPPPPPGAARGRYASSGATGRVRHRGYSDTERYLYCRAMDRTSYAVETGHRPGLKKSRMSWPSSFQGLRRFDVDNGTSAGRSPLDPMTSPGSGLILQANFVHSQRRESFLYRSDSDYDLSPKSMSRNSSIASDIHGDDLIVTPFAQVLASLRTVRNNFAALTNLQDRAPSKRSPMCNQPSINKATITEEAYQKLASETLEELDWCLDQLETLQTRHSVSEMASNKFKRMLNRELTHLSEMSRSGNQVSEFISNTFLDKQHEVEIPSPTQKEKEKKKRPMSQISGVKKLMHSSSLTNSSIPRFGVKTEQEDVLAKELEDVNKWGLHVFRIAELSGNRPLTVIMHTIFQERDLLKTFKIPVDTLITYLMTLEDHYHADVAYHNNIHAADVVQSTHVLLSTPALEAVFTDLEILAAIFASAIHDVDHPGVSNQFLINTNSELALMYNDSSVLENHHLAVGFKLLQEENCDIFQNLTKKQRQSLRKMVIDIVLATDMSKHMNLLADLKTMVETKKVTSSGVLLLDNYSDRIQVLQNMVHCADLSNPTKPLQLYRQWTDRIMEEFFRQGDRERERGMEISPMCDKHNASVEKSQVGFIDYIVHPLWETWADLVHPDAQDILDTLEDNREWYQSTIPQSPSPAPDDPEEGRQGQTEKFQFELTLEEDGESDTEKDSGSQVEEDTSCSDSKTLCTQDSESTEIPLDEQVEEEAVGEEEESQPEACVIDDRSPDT

COc1cc(-c2ccccc2)c(OC)c(O)c1-c1ccc2c(c1)C=CC(C)(C)O2 [compound 3, Sanshamycin C]
IC50: 5.54 ± 0.24 µM
